US9718828B2 (MERCK SHARP & DOHME CORP., priority 2011, dated 2017)
pEC50, pIC50: −log10 of the molar value. Like-named read-outs stand apart in the source and are kept apart here.

Assays:
Btk enzyme (His-Btk) = Btk enzyme (His-Btk) (Homo sapiens (Human), UniProt Q06187); assay: Btk enzyme activity, IMAP fluorescence polarization assay (Assay Method A)
[1] = target: hBTK (full-length BTK, 6HIS-tag cleaved) (Homo sapiens (Human), UniProt Q06187); assay: BTK enzymatic activity, LANCE TR-FRET assay (Assay Method C); type: biochemical; conditions: LANCE TR-FRET, 50 pM hBTK, 25 μM ATP; class 100-1000 is given as ≧100 nM-<1 μM; read-out: IC50 Btk activity values - Assay Method C
Sequence of hBTK (full-length BTK, 6HIS-tag cleaved) (Q06187 whole entry): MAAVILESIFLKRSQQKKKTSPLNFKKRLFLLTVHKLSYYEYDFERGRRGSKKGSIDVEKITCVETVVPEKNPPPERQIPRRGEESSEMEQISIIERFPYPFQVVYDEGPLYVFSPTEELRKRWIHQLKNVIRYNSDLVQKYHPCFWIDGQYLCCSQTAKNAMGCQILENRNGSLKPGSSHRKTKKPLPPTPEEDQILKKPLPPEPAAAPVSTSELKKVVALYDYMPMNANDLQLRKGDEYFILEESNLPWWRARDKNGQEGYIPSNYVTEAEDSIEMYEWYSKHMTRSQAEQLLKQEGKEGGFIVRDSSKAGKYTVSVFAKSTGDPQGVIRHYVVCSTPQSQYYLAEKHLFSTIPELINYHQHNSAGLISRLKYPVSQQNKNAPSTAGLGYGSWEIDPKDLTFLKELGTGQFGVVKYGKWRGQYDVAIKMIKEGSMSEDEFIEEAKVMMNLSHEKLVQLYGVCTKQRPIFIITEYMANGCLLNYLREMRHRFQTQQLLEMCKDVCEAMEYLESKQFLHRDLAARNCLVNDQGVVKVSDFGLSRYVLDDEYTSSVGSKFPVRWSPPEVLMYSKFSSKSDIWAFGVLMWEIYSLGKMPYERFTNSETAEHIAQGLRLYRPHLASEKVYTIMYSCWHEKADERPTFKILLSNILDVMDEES

[2] = read-out: EC50 Btk activity values - Assay Method A, IMAP-FP, 60 min pre-incubation, 5 μM ATP, class 100-1000 is given as ≧100 nM-<1 μM

Sequence of Btk enzyme (His-Btk) (Q06187 whole entry): as above

| pEC50 (Btk enzyme (His-Btk)) | pEC50 (Btk enzyme (His-Btk); [2]) | SMILES | further results |
| --- | --- | --- | --- |
| > 8.00 | – | CCOC(=O)c1cnc(N)c2c(-c3ccc(C(=O)Nc4cc(C(F)(F)F)ccn4)cc3)nc([C@@H]3CCCN(C(=O)C4(C)COC4)C3)n12 [Example 299, (R)-ethyl 8-amino-3-(1-(3-methyloxetane-3-carbonyl)piperidin-3-yl)-1-(4-(4-(trifluoromethyl)pyridine-2-ylcarbamoyl)phenyl)imidazo[1,5-a]pyrazine-5-carboxylate] | – |
| – | > 8.00 | CC1(C(=O)N2CCC[C@@H](c3nc(-c4ccc(C(=O)Nc5cc(C(F)(F)F)ccn5)cc4)c4c(N)ncc(C(=O)O)n34)C2)COC1 [Example 300, (R)-8-amino-3-(1-(3-methyloxetane-3-carbonyl)piperidin-3-yl)-1-(4-(4-(trifluoromethyl)pyridin-2-ylcarbamoyl)phenyl)imidazo[1,5-a]pyrazine-5-carboxylic acid] | – |
| – | > 8.00 | CC1(C(=O)N2CCC[C@@H](c3nc(-c4ccc(C(=O)Nc5cc(C(F)(F)F)ccn5)cc4)c4c(N)ncc(Cl)n34)C2)COC1 [Example 301, (R)-4-(8-amino-5-chloro-3-(1-(3-methyloxetane-3-carbonyl)piperidin-3-yl)imidazo[1,5-a]pyrazin-1-yl)-N-(4-(trifluoromethyl)pyridin-2-yl)benzamide] | – |
| – | > 8.00 | C=Cc1cnc(N)c2c(-c3ccc(C(=O)Nc4cc(C(F)(F)F)ccn4)cc3)nc([C@@H]3CCCN(C(=O)C4(C)COC4)C3)n12 [Example 302, (R)-4-(8-amino-3-(1-(3-methyloxetane-3-carbonyl)piperidin-3-yl)-5-vinylimidazo[1,5-a]pyrazin-1-yl)-N-(4-(trifluoromethyl)pyridin-2-yl)benzamide] | – |
| 7.00 to 8.00 | – | CC1(C(=O)N2CCC[C@@H](c3nc(-c4ccc(C(=O)Nc5cc(C(F)(F)F)ccn5)cc4)c4c(N)ncc(C5CC5)n34)C2)COC1 [Example 303, (R)-4-(8-amino-5-cyclopropyl-3-(1-(3-methyloxetane-3-carbonyl)piperidin-3-yl)imidazo[1,5-a]pyrazin-1-yl)-N-(4-(trifluoromethyl)pyridin-2-yl)benzamide] | – |
| – | > 8.00 | Cc1cnc(N)c2c(-c3ccc(C(=O)Nc4cc(C(F)(F)F)ccn4)cc3)nc([C@@H]3CCCN(C(=O)C4(C)COC4)C3)n12 [Example 306, (R)-4-(8-amino-5-methyl-3-(1-(3-methyloxetane-3-carbonyl)piperidin-3-yl)imidazo[1,5-a]pyrazin-1-yl)-N-(4-(trifluoromethyl)pyridin-2-yl)benzamide] | – |
| – | – | Nc1ncc(Cl)n2c([C@@H]3CCCNC3)nc(-c3ccc(C(=O)Nc4cc(C(F)(F)F)ccn4)cc3)c12 [Example 307] | pEC50 (Btk enzyme (His-Btk); read-out: EC50 Btk activity values - Assay Method A): > 8.00 |
| – | > 8.00 | CCc1cnc(N)c2c(-c3ccc(C(=O)Nc4cc(C(F)(F)F)ccn4)cc3)nc([C@@H]3CCCN(C(=O)C4(C)COC4)C3)n12 [Example 308, (R)-4-(8-amino-5-ethyl-3-(1-(3-methyloxetane-3-carbonyl)piperidin-3-yl)imidazo[1,5-a]pyrazin-1-yl)-N-(4-(trifluoromethyl)pyridin-2-yl)benzamide] | – |
| – | > 8.00 | CC1(C(=O)N2CCC[C@@H](c3nc(-c4ccc(C(=O)Nc5cc(C(F)(F)F)ccn5)cc4)c4c(N)ncc(/C=C/c5ccccc5)n34)C2)COC1 [Example 309, (R,E)-4-(8-amino-3-(1-(3-methyloxetane-3-carbonyl)piperidin-3-yl)-5-styrylimidazo[1,5-a]pyrazin-1-yl)-N-(4-(trifluoromethyl)pyridin-2-yl)benzamide] | – |
| – | > 8.00 | COCCC(=O)N1CCC[C@@H](c2nc(-c3ccc(C(=O)Nc4cc(C(F)(F)F)ccn4)cc3)c3c(N)ncc(/C=C/c4ccccc4)n23)C1 [Example 310, (R,E)-4-(8-amino-3-(1-(3-methoxypropanoyl)piperidin-3-yl)-5-styrylimidazo[1,5-a]pyrazin-1-yl)-N-(4-(trifluoromethyl)pyridin-2-yl)benzamide] | – |
| – | > 8.00 | CC1(C(=O)N2CCC[C@@H](c3nc(-c4ccc(C(=O)Nc5cc(C(F)(F)F)ccn5)cc4)c4c(N)ncc(-c5ccco5)n34)C2)COC1 [Example 311, (R)-4-(8-amino-5-(furan-2-yl)-3-(1-(3-methyloxetane-3-carbonyl)piperidin-3-yl)imidazo[1,5-a]pyrazin-1-yl)-N-(4-(trifluoromethyl)pyridin-2-yl)benzamide] | – |
| 7.00 to 8.00 | – | COC(=O)c1cnc(N)c2c(-c3ccc(C(=O)Nc4cc(C(F)(F)F)ccn4)cc3)nc(C)n12 [Example 312, methyl 8-amino-3-methyl-1-(4-(4-(trifluoromethyl)pyridin-2-ylcarbamoyl)phenyl)imidazo[1,5-a]pyrazine-5-carboxylate] | – |
| – | > 8.00 | Nc1ncc(/C=C/c2ccccc2)n2c(C3CCOCC3)nc(-c3ccc(C(=O)Nc4ccccn4)cc3)c12 [Example 313, (E)-4-(8-amino-5-styryl-3-(tetrahydro-2H-pyran-4-yl)imidazo[1,5-a]pyrazin-1-yl)-N-(pyridin-2-yl)benzamide] | – |
| – | > 8.00 | COCCC(=O)N1CCOC(c2nc(-c3ccc(C(=O)Nc4cc(C(F)(F)F)ccn4)cc3)c3c(N)ncc(Cl)n23)C1 (centres unmarked) [Example 314, 4-(8-amino-5-chloro-3-(4-(3-methoxypropanoyl)morpholin-2-yl)imidazo[1,5-a]pyrazin-1-yl)-N-(4-(trifluoromethyl)pyridin-2-yl)benzamide] | – |
| – | > 8.00 | CC1(C(=O)N2CCOC(c3nc(-c4ccc(C(=O)Nc5cc(C(F)(F)F)ccn5)cc4)c4c(N)ncc(Cl)n34)C2)COC1 (centres unmarked) [Example 315, 4-(8-amino-5-chloro-3-(4-(3-methyloxetane-3-carbonyl)morpholin-2-yl)imidazo[1,5-a]pyrazin-1-yl)-N-(4-(trifluoromethyl)pyridin-2-yl)benzamide] | – |
| – | > 8.00 | Nc1ncc(Cl)n2c(C3CN(C(=O)C4(O)CCC4)CCO3)nc(-c3ccc(C(=O)Nc4cc(C(F)(F)F)ccn4)cc3)c12 (centres unmarked) [Example 316, 4-(8-amino-5-chloro-3-(4-(1-hydroxycyclobutanecarbonyl)morpholin-2-yl)imidazo[1,5-a]pyrazin-1-yl)-N-(4-(trifluoromethyl)pyridin-2-yl)benzamide] | – |
| > 8.00 | – | [2H]C([2H])([2H])c1cnc(N)c2c(-c3ccc(C(=O)Nc4cc(C(F)(F)F)ccn4)cc3)nc([C@@H]3CCCN(C(=O)C4(C)COC4)C3)n12 [Example 317, (R)-4-(8-amino-5-deuteromethyl-3-(1-(3-methyloxetane-3-carbonyl)piperidin-3-yl)imidazo[1,5-a]pyrazin-1-yl)-N-(4-(trifluoromethyl)pyridin-2-yl)benzamide] | – |
| – | > 8.00 | CC1(C(=O)N2CCC[C@@H](c3nc(-c4ccc(C(=O)Nc5cc(C(F)(F)F)ccn5)cc4)c4c(N)ncc(/C=C/c5ccc(F)cc5)n34)C2)COC1 [Example 318, (R,E)-4-(8-amino-5-(4-fluorostyryl)-3-(1-(3-methyloxetane-3-carbonyl)piperidin-3-yl)imidazo[1,5-a]pyrazin-1-yl)-N-(4-(trifluoromethyl)pyridin-2-yl)benzamide] | – |
| – | > 8.00 | CC1(C(=O)N2CCC[C@@H](c3nc(-c4ccc(C(=O)Nc5cc(C(F)(F)F)ccn5)cc4)c4c(N)ncc(CCc5ccccc5)n34)C2)COC1 [Example 319, (R)-4-(8-amino-3-(1-(3-methyloxetane-3-carbonyl)piperidin-3-yl)-5-phenethylimidazo[1,5-a]pyrazin-1-yl)-N-(4-(trifluoromethyl)pyridin-2-yl)benzamide] | – |
| 7.00 to 8.00 | – | COc1cccc(-c2cnc(N)c3c(-c4ccc(C(=O)Nc5cc(C(F)(F)F)ccn5)cc4)nc([C@@H]4CCCN(C(=O)C5(C)COC5)C4)n23)c1 [Example 320, (R)-4-(8-amino-5-(3-methoxyphenyl)-3-(1-(3-methyloxetane-3-carbonyl)piperidin-3-yl)imidazo[1,5-a]pyrazin-1-yl)-N-(4-(trifluoromethyl)pyridin-2-yl)benzamide] | – |
| 7.00 to 8.00 | – | CC1(C(=O)N2CCC[C@@H](c3nc(-c4ccc(C(=O)Nc5cc(C(F)(F)F)ccn5)cc4)c4c(N)ncc(-c5ccccc5)n34)C2)COC1 [Example 321, (R)-4-(8-amino-3-(1-(3-methyloxetane-3-carbonyl)piperidin-3-yl)-5-phenylimidazo[1,5-a]pyrazin-1-yl)-N-(4-(trifluoromethyl)pyridin-2-yl)benzamide] | – |
| 7.00 to 8.00 | – | CC1(C(=O)N2CCC[C@@H](c3nc(-c4ccc(C(=O)Nc5cc(C(F)(F)F)ccn5)cc4)c4c(N)ncc(C5=CCOCC5)n34)C2)COC1 [Example 322, (R)-4-(8-amino-5-(3,6-dihydro-2H-pyran-4-yl)-3-(1-(3-methyloxetane-3-carbonyl)piperidin-3-yl)imidazo[1,5-a]pyrazin-1-yl)-N-(4-(trifluoromethyl)pyridin-2-yl)benzamide] | – |
| 7.00 to 8.00 | – | Cc1nc(-c2ccc(C(=O)Nc3cc(C(F)(F)F)ccn3)cc2)c2c(N)ncc(C(O)CC(C)C)n12 (centres unmarked) [Example 323, 4-(8-amino-5-(1-hydroxy-3-methylbutyl)-3-methylimidazo[1,5-a]pyrazin-1-yl)-N-(4-(trifluoromethyl)pyridin-2-yl)benzamide] | – |
| – | – | COc1ccc(NC(=O)c2ccc(-c3nc([C@@H]4CCCN(C(=O)C5(C)COC5)C4)n4ccnc(N)c34)cc2)nc1 [Example 325, (R)-4-(8-amino-3-(1-(3-methyloxetane-3-carbonyl)piperidin-3-yl)imidazo[1,5-a]pyrazin-1-yl)-N-(5-methoxypyridin-2-yl)benzamide] | pIC50 [1]: 7.00 to 8.00 |
| – | – | CC1(C(=O)N2CCC[C@@H](c3nc(-c4ccc(C(=O)Nc5ccc(C#N)cn5)cc4)c4c(N)nccn34)C2)COC1 [Example 327, 4-(8-amino-3-{(3R)-1-[(3-methyloxetan-3-yl)carbonyl]piperidin-3-yl}imidazo[1,5-a]pyrazin-1-yl)-N-(5-cyanopyridin-2-yl)benzamide] | pIC50 [1]: > 8.00 |
| – | – | Cc1noc(C)c1C(=O)N1CCC[C@@H](c2nc(-c3ccc(C(=O)Nc4cc(C(F)(F)F)ccn4)cc3)c3c(N)nccn23)C1 [Example 328] | pIC50 [1]: > 8.00 |
